Data on 15 compounds can be found in patent US20080009480A1, “CYCLOPENTA[b][1,4]DIAZEPINO[6,7,1-hi]INDOLES AND DERIVATIVES” (Wyeth, priority 2000, published 2008).

Like-named read-outs stand apart in the source and are kept apart here. A value given as a limit tells only on which side of the number the result lay.

One data set deals with T1, human 5-HT2C receptor (Homo sapiens, UniProt P28335).
T1 construct: expressed in transfected cells; host or cells: CHO cells
T1 sequence (P28335 33-458): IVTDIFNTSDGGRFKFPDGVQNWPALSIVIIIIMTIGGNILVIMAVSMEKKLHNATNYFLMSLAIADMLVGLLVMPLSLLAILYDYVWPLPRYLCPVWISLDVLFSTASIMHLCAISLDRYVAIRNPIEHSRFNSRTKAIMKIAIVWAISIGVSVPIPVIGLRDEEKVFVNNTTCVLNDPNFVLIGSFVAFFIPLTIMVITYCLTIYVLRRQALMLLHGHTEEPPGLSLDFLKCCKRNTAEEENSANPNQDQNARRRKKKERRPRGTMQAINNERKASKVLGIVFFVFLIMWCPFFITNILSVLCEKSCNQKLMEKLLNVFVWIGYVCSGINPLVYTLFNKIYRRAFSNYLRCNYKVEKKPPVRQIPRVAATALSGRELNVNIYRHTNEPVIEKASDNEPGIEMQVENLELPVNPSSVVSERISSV
The data set can be described thus: Stimulation of [3H] inositol monophosphate production by 5HT2C agonists in transfected CHO cells. The format is cell-based. Particulars: read-out: 5HT2C % Emax (5HT, 100%).

The subject of the next data set is male Sprague-Dawley rats. As to the kind of experiment: Effects of compounds on feeding behavior in rats (24 hr fast, 2 hour food intake). Type of data set: in vivo, rat. The settings on record: ip, dose giving 50% reduction in food intake. The protocol:
Effects of Compounds on Feeding Behavior in Rats
Eight (8) male Sprague-Dawley rats weighing 150-180 g were separated into individual cages and acclimated to a powdered diet for 2 weeks. During this period and throughout the test procedure, the food cup and the animals were weighed daily. Following the acclimation period, animals were fasted for 24 hours and then injected with either vehicle or one of 4 doses of the test compound. Food intake was assessed at 2 and 24 hours following compound administration. Compounds to be evaluated were injected 1-2× per week until all animals had received all doses of the test compound. The order of doses were chosen using to a modified Latin Square design. Additional studies may be conducted in satieted rats at the start of the dark cycle. Compounds were injected i.p, s.c. or p.o. At the end of the study effects of the test compound on food intake was evaluated using a repeated measures ANOVA. Data were collected were 2 hour food intake (g). Data were subjected to one-way ANOVA with posthoc t-tests to assess group differences. Where appropriate, ED50 values were calculated.

Data set [1] concerns the target T2, human 5-hydroxytryptamine2C (h5HT2C) receptor (Homo sapiens, UniProt P28335).
T2 sequence (P28335 33-458): T1 sequence (P28335 33-458)
The data set can be described thus: 5HT2C receptor binding test procedure ([125I]DOI displacement, CHO cell membranes).

For data set [2] the following is noted: several animal species and humans; Cowen et al. 1995; cited from earlier work.
For data set [3] the following is noted: rat; Martin et al. 1989; cited from earlier work.
The mark [4] stands for this setting: 5-HT2C Affinity DOI/Agonist Binding (Ki, μM), [125I]DOI agonist binding.

Procedure for human 5-HT2C receptor: One (1) ml of maintenance medium containing 1 μCi/ml myo-[^3H] inositol was added to each well. After 48 hours labeling, the cells were washed once with 0.5 ml DMEM containing 25 mM HEPES and 10 mM LiCl, then preincubated with the medium for 30 min (antagonists were included in this period if tested). At the end of the preincubation, the medium was removed, the cells were then incubated with test compounds (in presence of antagonists if needed) for 30 min. The reaction was terminated by removal of the incubation solution and addition of 0.5 ml ice-cold 5% PCA, followed by 15 to 30 min incubation on ice. 200 μl of 0.5 M Tes/1.5 M K2CO3 was added to each well to neutralize to pH 7, and plates were left on ice for another 15 to 30 min to precipitate all salts. The liquid and solid phases were separated by centrifugation.
A portion (350 μl) of the upper aqueous phase was applied to Dowex AG-1X8 (formate form, 100-200 mesh) columns. The columns were then washed stepwise with 10 ml of water and 10 ml of 25 mM ammonium formate to remove free myo-[^3H]inositol and deacylated phosphoinositol, respectively. Finally 10 ml of 0.2 M ammonium formate solution was applied to the columns to elute [^3H] inositol monophosphate ([^3H] IP1) directly into scintillationvials.
A 3-parameter logistic function is used to generate estimate of EC50/IC50.

In the case of `c1cc2c3c(c1)C1CCCC1N3CCNC2` (stereo not drawn) [Example 2, 1,2,3,4,8,9,10,10a-octahydro-7bH-cyclopenta[b][1,4]diazepino[6,7,1-hi]indole], the Emax at human 5-HT2C receptor is 110%. In the data set on male Sprague-Dawley rats (Rattus norvegicus, read-out: ED50), the ED50 was 8.05 mg/kg.
On to `COc1cc(CC(C)N)c(OC)cc1I` (stereo not drawn) [[^125I] DOI, reference compound], for which the Kd in data set [1] (read-out: dissociation constant, KD of [125I] DOI at the human serotonin 5HT2C receptor, saturation binding with increasing concentrations of [125I] DOI) stood at 0.4 nM.
In turn, `Cc1cc2c3c(c1)c1c(n3CCNC2)CCC1` [Example 6, 6-Methyl-1,2,3,4,9,10-hexahydro-8H-cyclopenta[b][1,4]diazepino[6,7,1-hi]indole] showed a melting point of 168 to 170 °C. Moreover, the Ki in data set [1] (read-out: 5HT2C Affinity DOI/Agonist binding (Ki), [125I]DOI agonist binding) is 0.985 µM.
`C[C@H]1NCCN2c3c1cccc3[C@@H]1CCC[C@@H]12` (relative stereo) [Example 13, rel-(4R,7bS,10aS)-4-Methyl-1,2,3,4,8,9,10,10a-Octahydro-7bH-Cyclopenta[b][1,4]Diazepino[6,7,1-hi]Indole] returned a Ki in data set [1] (setting [4]) of 0.31 µM.
In data set [1] (setting [4]), `CC1CN2c3c(cccc3C3CCCC32)CN1` (single isomer, unassigned) [Example 9] registered a Ki of 0.91 µM.
`CC1CN2c3c(cccc3C3CCCC32)CN1` (single isomer, unassigned) [Example 7] returned a Ki in data set [1] (setting [4]) of 6 µM.
Same read-out and setting: the figure for `C[C@@H]1NCCN2c3c1cccc3[C@@H]1CCC[C@@H]12` (relative stereo) [Example 12, rel-(4S,7bS,10aS)-4-Methyl-1,2,3,4,8,9,10,10a-Octahydro-7bH-Cyclopenta[b][1,4]Diazepino[6,7,1-hi]Indole] is above 5 µM.
In the case of `c1cc2c3c(c1)[C@H]1CCC[C@H]1N3CCNC2` [Example 4B, 7bR,10aR)-1,2,3,4,8,9,10,10a-octahydro-7bH-cyclopenta-[b][1,4]diazepino[6,7,1-hi]indole], the “ED50” value with male Sprague-Dawley rats is 2.93 mg/kg.
Consider `CSc1ccc2c(c1)C(N1CCN(C)CC1)Cc1ccccc1S2` (stereo not drawn) [Methiothepin, reference compound], for which the Ki in data set [1] (reference compounds, [125I]DOI binding, h5HT2C in CHO membranes, read-out: Ki value and 95% confidence interval) came out at 0.0046 µM.
For the compound `c1cc2c3c(c1)[C@@H]1CCC[C@@H]1N3CCNC2` [Example 4A, (7bS,10aS)-1,2,3,4,8,9,10,10a-octahydro-7bH-cyclopenta-[b][1,4]diazepino-[6,7,1-hi]indole], the maximal response (Emax) on human 5-HT2C receptor amounted to 40%.
Take `c1cc2c3c(c1)c1c(n3CCNC2)CCC1` [Example 1, 1,2,3,4,9,10-Hexahydro-8H-cyclopenta[b][1,4]diazepino[6,7,1-hi]indole]: the melting point is 66 to 68 °C.
In the case of `Clc1cccc(N2CCNCC2)c1` [mCPP, meta-chlorophenylpiperazine], the “effect on food intake” value in data set [2] was “decreases food intake”. Also, the “effect on conditioned avoidance responding (CAR)” value in data set [3] is “block conditioned avoidance responding”.
As to `CC1CN2c3c(cccc3C3CCCC32)CN1` (single isomer, unassigned) [Example 10], in data set [1] (setting [4]), the Ki amounted to 4.3 µM.
Take `OC[C@H]1CN2c3c(cccc3C3CCCC32)CN1` (single isomer, unassigned) [Example 11]: in data set [1] (setting [4]), the Ki amounted to 1.9 µM.
On to `CC1CN2c3c(cccc3C3CCCC32)CN1` (single isomer, unassigned) [Example 8], for which the Ki in data set [1] (setting [4]) turned out to be 5.9 µM.

A word on the Emax: it is the size of the effect at its maximum, as opposed to the concentration needed. As a reminder, the Kd is a measure of binding affinity in units of concentration. The term melting point denotes the temperature, or range, at which the solid turns liquid.
